In EP0146113A2, “Active agent and therapeutical composition for the treatment of deincephalon failures of nervous deseases and skin diseases” (Aderhold, Dieter, priority 1983, dated 1985):

Columns and labels:
Patienten [1] = assay: Subcutaneous injection of the chemically pure substances in a series of patients; assay type: in vivo; details: subkutan
Description: Es wurden ferner die chemisch reinen Substanzen α -MSH und ß -MSH subkutan bei einer Reihe von Patienten gespritzt.

[2] = Therapeutic use of melanotropin peptides, overall results (no method given); assay type: in vivo; details: general statement, treatment of diencephalon/hypophysis dysfunction, Multiple Sklerose
[3] = Comparative trials with peptides of six, four or two amino acids of the chain Met-Glu-His-Phe-Arg-Trp-Gly; assay type: in vivo
Experimental: Die Wirkung von etwa 0,3 mg <-MSH entsprach etwa der Wirkung von 0,1 mg dieses Tetrapeptides.

Patienten [4] = assay: Long-term trial, subcutaneous application over 2 - 15 months in a series of patients (MS therapy); assay type: in vivo
Description: Das Tetrapeptid His-Phe-Arg-Trp wurde in einem Langzeitversuch über 2 - 15 Monate hinweg einer Reihe von Patienten subkutan appliziert. Dabei wurden folgende Ergebnisse erhalten: • Zwei Drittel der Patienten hatten ein subjektives - aber durchaus auch objektivierbares - Gefühl der Frische, höheren Lebensmut und größerer Leistungsfähigkeit.
Verschiedene Anhaltspunkte machten deutlich, daß es sich nicht um einen Cortisoneffekt handelte.
Wenn ein bis zwei Tage lang nicht oder mit Placebos behandelt wurde, trat bei allen Patienten eine objektive Verschlechterung in Richtung der bisherigen Beschwerden auf; auch subjektiv waren alle Patienten eindrucksvoll in der Lage, anhand der Wirkung Spritzen mit Substanz von Placebos zu unterscheiden. Die richtige Dosierung des erfindungsgemäßen Mittels ist kritisch. Uberdosierungen machten sich in Form von erhöhtem Blutdruck, Hitzegefühl, Kurzatmigkeit und bei kreislauflabilen Patienten in deren typischen Beschwerden bemerkbar. Die normale Tagesdosis des Tentrapeptides zur MS-Therapie wurde auf etwa […] festgesetzt, in Einzelfällen - solange es ohne die obengenannten Uberdosierungsphänomene vertragen wird - höher bzw. im Sinne einer Erhaltungsdosis oder bei kreislauflabilen Patienten auch niedriger.

[5] = Storage stability (loss of activity on storage); assay type: physicochemical
Experimental: (§1) Die Erfahrungen mit α-, β- und 4 -MSH bzw. dem erwähnten Tetrapeptid zeigen, daß diese Substanzen ausserordentlich empfindlich und labil sind. […] Bei der Verbindung des Tetrapeptides mit einer Depotsubstanz sollte eine Wirkungsdauer von 12-15 Stunden angestrebt werden.
(§2) Während die Halbwertzeit des reinen Tetrapeptides ca. 1 Woche beträgt, trat bei dem hergestellten Depotpräparat ein geringerer Wirkungsverlust als 10% pro Woche auf. Im Körper hält der Depoteffekt zwischen 6 - 12h an. Als Tagesdosis von dem Depotpräparat empfiehlt sich eine Menge von etwa 1 ml, was etwa 200 Mikrogramm entspricht.
Für das Depotpräparat ist keine gekühlte Lagerung mehr erforderlich.

[6] = Duration of effect in the body; assay type: in vivo; details: without depot substance
Experimental: as §1, §2

menschlichen Auges = assay: Eye drops, effect on vision; assay type: in vivo, Patienten
Description: Diese Fähigkeit zeigte insbesondere das Tetrapeptid His-Phe-Arg-Trp.
Es wurden täglich ca. 2pg pro Auge des Tetrapeptides in physiologischer Kochsalzlösung in der Form von Augentropfen verabreicht. Dabei wurden die vorstehend erwähnten Erfolge erzielt.

[7] = Augentropfen in physiologischer Kochsalzlösung, daily

| Compound | kurzzeitiger Besserungseffekt (Kräftigung, Frischegefühl) (Patienten [1]; time to onset, at first application possibly only after one to two days) | Ergebnisse [2] | Wirkung (comparison between the substances) (Patienten [1]; patients) | Equally effective amount (Wirkung entsprach) ([3]; amounts of the two substances with about the same effect) | Positivwirkung und Negativwirkung ([3]; comparison among peptides of the seven-residue chain) | Tolerability together with Cortison (Patienten [4]; in vivo) | Krankheitsbild (course) (Patienten [4]; subkutan, 2 - 15 Monate) | Reports of individual patients (Patienten [4]; subkutan, 2 - 15 Monate) | Share of patients with Gefühl der Frische, höheren Lebensmut und größerer Leistungsfähigkeit (Patienten [4]; subkutan, 2 - 15 Monate) | Spastik (Patienten [4]; subkutan, 2 - 15 Monate) | Absetzen von Cortison (Patienten [4]; withdrawal of Cortison under the tetrapeptide) | Lagerfähigkeit ([5]; als Reinsubstanz tiefgekühlt) | Loss of Wirksamkeit ([5]; in destilliertem Wasser gelöst, bei Kühlschranktemperatur aufbewahrt) | Halbwertzeit ([5]; pure tetrapeptide, storage) | Loss of effect im Körper [6] | Fähigkeit des Patienten in bezug auf die Zusammensetzung von bewegten Bildern (menschlichen Auges; [7]) | Wahrnehmung von Lichtreizen (menschlichen Auges; [7]) | Sehfähigkeit des menschlichen Auges (menschlichen Auges; in vivo) |
| --- | --- | --- | --- | --- | --- | --- | --- | --- | --- | --- | --- | --- | --- | --- | --- | --- | --- | --- |
| β -Melanotropin [ß -MSH] | innerhalb der ersten Stunde |  |  |  |  |  |  |  |  |  |  |  |  |  |  |  |  |  |
| N=C(N)NCCC[C@H](NC(=O)[C@H](Cc1ccccc1)NC(=O)[C@@H](N)Cc1cnc[nH]1)C(=O)N[C@@H](Cc1c[nH]c2ccccc12)C(=O)O [Tetrapeptid His-Phe-Arg-Trp, His-Phe-Arg-Trp] |  | besten Ergebnisse | im wesentlichen die gleiche Wirkung wie α -MSH und β-MSH | ~0,1 mg | stärksten Positivwirkung und der schwächsten Negativwirkung | gut nebeneinander vertragen | keine Verschlechterungen des Krankheitsbildes auf, sondern einige nachweisbare Verbesserungen | Normalisierung des (bisher zu niedrigen) Blutdrucks, bessere Durchblutung und Beweglichkeit der Extremitäten, Wiederherstellung des Tag-Nacht-Rhythmus (keine Schlafstörungen mehr), bessere Sehfähigkeit, Normalisierung des Zyklus, Minderung von Gleichgewichtsstörungen | Zwei Drittel | starkes Nachlasen der Spastik | wesentlich erleichtert und ohne Rückschläge oder Komplikationen beschleunigt | lagerfähig | etwa die Hälfte | ca. 1 Woche | innerhalb kurzer Zeit | wesentlich verbessert | stabilisiert | Verbesserung der Sehfähigkeit |
